pIC50: −log10 of the molar value. One block for each compound: values may come before it.
Tests used:
Phospholipase D1 [1] = target: T1, Phospholipase D1 (Homo sapiens, UniProt Q13393); assay: Inhibition of PLD1 in human Calu1 cells; type: cell-based
T1 sequence (Q13393 whole entry): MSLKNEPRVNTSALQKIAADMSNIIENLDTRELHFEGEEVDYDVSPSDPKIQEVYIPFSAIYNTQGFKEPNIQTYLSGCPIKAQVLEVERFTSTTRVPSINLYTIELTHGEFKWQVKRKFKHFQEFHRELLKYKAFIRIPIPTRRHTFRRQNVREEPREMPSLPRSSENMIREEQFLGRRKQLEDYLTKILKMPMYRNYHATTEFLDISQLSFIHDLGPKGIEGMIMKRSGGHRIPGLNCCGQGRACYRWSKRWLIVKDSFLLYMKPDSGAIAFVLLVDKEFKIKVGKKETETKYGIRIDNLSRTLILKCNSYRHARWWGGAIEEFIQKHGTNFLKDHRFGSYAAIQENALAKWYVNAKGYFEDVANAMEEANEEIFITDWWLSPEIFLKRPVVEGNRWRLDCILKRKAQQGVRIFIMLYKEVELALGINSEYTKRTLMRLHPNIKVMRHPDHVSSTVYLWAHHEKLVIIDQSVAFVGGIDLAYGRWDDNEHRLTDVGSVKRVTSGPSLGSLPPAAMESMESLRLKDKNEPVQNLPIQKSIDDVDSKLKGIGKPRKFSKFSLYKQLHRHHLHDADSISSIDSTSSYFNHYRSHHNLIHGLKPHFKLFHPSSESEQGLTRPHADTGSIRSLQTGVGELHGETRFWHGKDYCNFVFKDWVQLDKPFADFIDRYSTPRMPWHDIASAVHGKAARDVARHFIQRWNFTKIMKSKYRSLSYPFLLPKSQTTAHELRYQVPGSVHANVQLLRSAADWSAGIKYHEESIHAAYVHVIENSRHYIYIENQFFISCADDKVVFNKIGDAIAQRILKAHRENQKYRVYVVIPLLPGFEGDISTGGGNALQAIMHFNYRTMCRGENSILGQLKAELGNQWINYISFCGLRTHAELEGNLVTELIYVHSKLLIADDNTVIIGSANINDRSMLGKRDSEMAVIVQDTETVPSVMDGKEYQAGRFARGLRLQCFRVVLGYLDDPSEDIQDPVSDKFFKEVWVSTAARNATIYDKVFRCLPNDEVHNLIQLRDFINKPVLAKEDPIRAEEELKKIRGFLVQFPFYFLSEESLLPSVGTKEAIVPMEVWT

Phospholipase D2 [2] = target: T2, Phospholipase D2 (Homo sapiens, UniProt O14939); assay: Inhibition of GFP-fused PLD2 (unknown origin) expressed in HEK293 cells by cellular assay; type: cell-based
T2 sequence (O14939 whole entry, the tested form may be a part): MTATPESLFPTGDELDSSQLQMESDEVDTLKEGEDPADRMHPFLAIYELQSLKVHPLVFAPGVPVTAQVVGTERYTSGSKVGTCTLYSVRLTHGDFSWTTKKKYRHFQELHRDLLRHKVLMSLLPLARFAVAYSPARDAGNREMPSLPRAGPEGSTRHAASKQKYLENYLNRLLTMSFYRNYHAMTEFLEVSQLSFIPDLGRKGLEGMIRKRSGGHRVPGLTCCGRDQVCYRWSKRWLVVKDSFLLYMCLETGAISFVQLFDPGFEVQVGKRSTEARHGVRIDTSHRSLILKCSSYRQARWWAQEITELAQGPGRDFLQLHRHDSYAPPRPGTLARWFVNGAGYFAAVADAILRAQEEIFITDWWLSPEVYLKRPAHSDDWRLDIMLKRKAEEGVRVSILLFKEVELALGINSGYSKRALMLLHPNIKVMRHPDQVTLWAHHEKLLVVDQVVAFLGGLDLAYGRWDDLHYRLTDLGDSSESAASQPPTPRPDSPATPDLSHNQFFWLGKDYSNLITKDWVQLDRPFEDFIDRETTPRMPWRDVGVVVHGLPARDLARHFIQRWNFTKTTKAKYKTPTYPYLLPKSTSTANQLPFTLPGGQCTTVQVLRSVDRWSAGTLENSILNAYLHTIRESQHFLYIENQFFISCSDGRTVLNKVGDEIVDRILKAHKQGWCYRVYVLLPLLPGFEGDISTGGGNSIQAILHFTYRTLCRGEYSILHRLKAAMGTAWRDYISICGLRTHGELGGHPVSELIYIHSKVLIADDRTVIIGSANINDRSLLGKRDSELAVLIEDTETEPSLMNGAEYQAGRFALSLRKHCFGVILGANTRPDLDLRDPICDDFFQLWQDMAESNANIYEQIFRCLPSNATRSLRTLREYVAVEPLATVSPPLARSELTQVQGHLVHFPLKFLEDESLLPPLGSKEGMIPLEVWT

[3] = Fraction unbound in human plasma; type: ADME, cell-free
[4] = Fraction unbound in rat plasma; type: ADME, cell-free
[5] = Fraction unbound in rat brain; type: ADME, tissue-based
Homo sapiens = organism: Homo sapiens; assay: Selectivity ratio of IC50 for […] (unknown origin) to IC50 for […] (unknown origin)
Phospholipase D2 [6] = target: T2, Phospholipase D2
Description: Inhibition of PLD2 (unknown origin)

Phospholipase D1 [7] = target: T1, Phospholipase D1
Description: Inhibition of PLD1 (unknown origin)

[8] = Half life in rat at […], iv administered as cassette dose; type: ADME, organism-based; conditions: in vivo
[9] = Volume of distribution at steady state in rat at […], iv administered as cassette dose; type: ADME, organism-based; conditions: in vivo, read-out: Vdss
[10] = […] clearance in rat at […], iv administered as cassette dose; type: ADME, organism-based; conditions: in vivo

SMILES: C[C@@H](CN1CCC2(CC1)C(=O)NC[C@@H]2c1ccc(F)cc1)NC(=O)c1cc2ccccc2[nH]1
pIC50 (Phospholipase D1 [1]): 7.80
pIC50 (Phospholipase D2 [2]): 6.85

SMILES: O=C(NCCN1CCC2(CC1)C(O)=NC[C@H]2c1ccc(F)cc1)c1cnc2ccccc2c1
Fu [3]: 12.2%
Fu [4]: 31.4%
Fu [5]: 2.6%

SMILES: C[C@@H](CN1CCC2(CC1)C(=O)NC[C@H]2c1ccc(F)cc1)NC(=O)c1ccc(F)cc1
pIC50 (Phospholipase D1 [1]): 6.60
pIC50 (Phospholipase D2 [2]): 6.68

SMILES: O=C(C#Cc1ccccc1)NCCN1CCC2(CC1)C(=O)NC[C@@H]2c1ccc(F)cc1
pIC50 (Phospholipase D1 [1]): 5.19
pIC50 (Phospholipase D2 [2]): 6.09

SMILES: O=C(NCCN1CCC2(CC1)C(=O)NC[C@@H]2c1ccc(F)cc1)c1cc2ccccc2[nH]1
pIC50 (Phospholipase D1 [1]): 6.49
pIC50 (Phospholipase D2 [2]): 7.37

SMILES: O=C(NCCN1CCC2(CC1)C(O)=NC[C@H]2c1ccc(F)cc1)c1ccc(F)cc1
half-life [8]: 3.2 h
Vd [9]: 56 L/kg
CLH [10]: 250 mL/min/kg
Fu [3]: 10.8%
Fu [4]: 24.6%
Fu [5]: 2.7%

SMILES: C[C@@H](CN1CCC2(CC1)C(=O)NC[C@H]2c1ccc(F)cc1)NC(=O)C#Cc1ccccc1
pIC50 (Phospholipase D1 [1]): 7.80
pIC50 (Phospholipase D2 [2]): 6.82

SMILES: C[C@@H](CN1CCC2(CC1)C(=O)NC[C@@H]2c1ccc(F)cc1)NC(=O)c1ccc(F)cc1
pIC50 (Phospholipase D1 [1]): 5.77
pIC50 (Phospholipase D2 [2]): 5.55

SMILES: O=C(C#Cc1ccccc1)NCCN1CCC2(CC1)C(=O)NC[C@H]2c1ccc(F)cc1
pIC50 (Phospholipase D1 [1]): 5.92
Fu [3]: 13.8%
Fu [4]: 16%
pIC50 (Phospholipase D2 [2]): 7.15
Fu [5]: 1.3%

SMILES: C[C@@H](CN1CCC2(CC1)C(=O)NC[C@@H]2c1ccc(F)cc1)NC(=O)C#Cc1ccccc1
pIC50 (Phospholipase D1 [1]): 6.49
pIC50 (Phospholipase D2 [2]): 5.40

Further lines, with some results ahead:

Fu [3]: 13.6%
Fu [4]: 13%
Fu [5]: 0.4%
SMILES: C[C@@H](CN1CCC2(CC1)C(=O)NC[C@H]2c1ccc(F)cc1)NC(=O)c1cc2ccccc2[nH]1
pIC50 (Phospholipase D1 [1]): 9.00
pIC50 (Phospholipase D2 [2]): 7.92

Ratio IC50 (Homo sapiens): > 80
pIC50 (Phospholipase D2 [6]): 6.44
pIC50 (Phospholipase D1 [7]): < 4.52
SMILES: O=C(NCCN1CCC2(CC1)C(=O)NCN2Cc1cccnc1)c1ccc2ccccc2c1

Fu [3]: 4.5%
Fu [4]: 6.1%
Fu [5]: 0.3%
SMILES: C[C@@H](CN1CCC2(CC1)C(=O)NC[C@H]2c1ccc(F)cc1)NC(=O)c1ccc2ccccc2c1
pIC50 (Phospholipase D1 [1]): 6.09
pIC50 (Phospholipase D2 [2]): 7.59

half-life [8]: 3.63 h
Vd [9]: 80 L/kg
CLH [10]: 340 mL/min/kg
Fu [3]: 12.4%
Fu [4]: 19.8%
Fu [5]: 0.4%
SMILES: O=C(NCCN1CCC2(CC1)C(=O)NC[C@H]2c1ccc(F)cc1)c1cc2ccccc2[nH]1
pIC50 (Phospholipase D1 [1]): 7.68
pIC50 (Phospholipase D2 [2]): 8.60
